Measured values: US11117915B2, “Antibacterial aminoglycoside analogs” (Cipla USA, Inc., priority 2007, dated 2021)
≈ marks a conversion by molar mass, not a printed value. Where two headings read alike, the source gives them in different places.

Experiments:
P. aeruginosa ATCC 27853 = test: MIC assay, CLSI broth microdilution, P. aeruginosa ATCC 27853 (APAE001); format: cell-based; details: for MIC: Pseudomonas aeruginosa, read-out: MIC APAE001
Protocol: (§1) Minimum inhibitory concentrations (MIC) were determined by reference Clinical and Laboratory Standards Institute (CLSI) broth microdilution methods per M7-A7 [2006]. Quality control ranges utilizing E. coli ATCC 25922, P. aeruginosa ATCC 27853 and S. aureus ATCC 29213, and interpretive criteria for comparator agents were as published in CLSI M100-S17 [2007]. Briefly, serial two-fold dilutions of the test compounds were prepared at 2× concentration in Mueller Hinton Broth. The compound dilutions were mixed in 96-well assay plates in a 1:1 ratio with bacterial inoculum. The inoculum was prepared by suspension of a colony from an agar plate that was prepared the previous day. Bacteria were suspended in sterile saline and added to each assay plate to obtain a final concentration of 5×10^5 CFU/mL. The plates were incubated at 35° C. for 20 hours in ambient air.

E. coli ATCC 25922 = test: MIC assay, CLSI broth microdilution, E. coli ATCC 25922 (AECO001); format: cell-based; details: for MIC: Escherichia coli, read-out: MIC AECO001
Protocol: as §1
These MIC assays were conducted following the same protocol as set forth in Example 110. As shown, substituted sisomicin derivatives with groups other than methyl at the 6′-position have improved activity against strains expressing the AAC6′-modifying enzymes.

[1] = APAE001 is ATCC27853, 35° C., 20 hours
[2] = AECO001 is ATCC25922, 35° C., 20 hours

Row | SMILES | MIC (P. aeruginosa ATCC 27853; ATCC27853, 20 h) | MIC (E. coli ATCC 25922; ATCC25922, 20 h) | also measured
1 | CN[C@@H]1[C@@H](O)[C@@H](O[C@@H]2[C@@H](O)[C@H](O[C@H]3OC(CNCCCN)=CC[C@H]3N)[C@@H](N)C[C@H]2NC(=O)CO)OC[C@]1(C)O [Example 24, 6′-(3-Amino-propyl)-1-(2-hydroxy-acetyl)-sisomicin] | 1 to 16 µg/mL (≈ 1.78 to 28.4 µM) | 1 to 16 µg/mL (≈ 1.78 to 28.4 µM) | –
2 | CN[C@@H]1[C@@H](O)[C@@H](O[C@@H]2[C@@H](O)[C@H](O[C@H]3OC(CNCCO)=CC[C@H]3N)[C@@H](N)C[C@H]2NC(=O)CO)OC[C@]1(C)O [Example 25, 6′-(2-Hydroxy-ethyl)-1-(2-hydroxy-acetyl)-sisomicin] | 1 to 16 µg/mL (≈ 1.82 to 29.1 µM) | 1 to 16 µg/mL (≈ 1.82 to 29.1 µM) | –
3 | CN[C@@H]1[C@@H](O)[C@@H](O[C@@H]2[C@@H](O)[C@H](O[C@H]3OC(CNCCCN)=CC[C@H]3N)[C@@H](N)C[C@H]2NS(=O)(=O)CCN)OC[C@]1(C)O [Example 26, 6′-(3-Amino-propyl)-1-(2-amino-ethylsulfonamide)-sisomicin] | 1 to 16 µg/mL (≈ 1.63 to 26.2 µM) | 1 to 16 µg/mL (≈ 1.63 to 26.2 µM) | –
4 | CN[C@@H]1[C@@H](O)[C@@H](O[C@@H]2[C@@H](O)[C@H](O[C@H]3OC(CNCC(O)CO)=CC[C@H]3N)[C@@H](N)C[C@H]2NS(=O)(=O)CCN)OC[C@]1(C)O (stereo partly drawn) [Example 27, 6′-(2-Hydroxy-propanol)-1-(2-amino-ethylsulfonamide)-sisomicin] | > 16 µg/mL | 1 to 16 µg/mL (≈ 1.59 to 25.4 µM) | –
5 | CN[C@@H]1[C@@H](O)[C@@H](O[C@@H]2[C@@H](O)[C@H](O[C@H]3OC(CNC[C@H](O)CO)=CC[C@H]3N)[C@@H](N)C[C@H]2NC(=O)[C@@H](O)CCN)OC[C@]1(C)O [Example 28, 6′-(2(S)-Hydroxy-propanol)-1-(4-amino-2(S)-hydroxy-butyryl)-sisomicin] | 1 to 16 µg/mL (≈ 1.61 to 25.7 µM) | 1 to 16 µg/mL (≈ 1.61 to 25.7 µM) | –
6 | CN[C@@H]1[C@@H](O)[C@@H](O[C@@H]2[C@@H](O)[C@H](O[C@H]3OC(CNCCO)=CC[C@H]3N)[C@@H](N)C[C@H]2NS(=O)(=O)CCN)OC[C@]1(C)O [Example 29, 6′-(2-Hydroxy-ethyl)-1-(2-amino-ethylsulfonamide)-sisomicin] | > 16 µg/mL | 1 to 16 µg/mL (≈ 1.67 to 26.7 µM) | –
7 | CN[C@@H]1[C@@H](O)[C@@H](O[C@@H]2[C@@H](O)[C@H](O[C@H]3OC(CNCC(N)CO)=CC[C@H]3N)[C@@H](N)C[C@H]2NC(=O)[C@@H](O)CCN)OC[C@]1(C)O (stereo partly drawn) [Example 30, 6′-(2-Amino-propanol)-1-(4-amino-2(S)-hydroxy-butyryl)-sisomicin] | 1 to 16 µg/mL (≈ 1.61 to 25.7 µM) | < 1 µg/mL | –
8 | CN[C@@H]1[C@@H](O)[C@@H](O[C@@H]2[C@@H](O)[C@H](O[C@H]3OC(CNCC4(O)CCNCC4)=CC[C@H]3N)[C@@H](N)C[C@H]2NC(=O)[C@@H](O)CCN)OC[C@]1(C)O [Example 31] | 1 to 16 µg/mL (≈ 1.51 to 24.2 µM) | 1 to 16 µg/mL (≈ 1.51 to 24.2 µM) | –
9 | CN[C@@H]1[C@@H](O)[C@@H](O[C@@H]2[C@@H](O)[C@H](O[C@H]3OC(CNCC(O)CCCN)=CC[C@H]3N)[C@@H](N)C[C@H]2NC(=O)[C@@H](O)CCN)OC[C@]1(C)O (stereo partly drawn) [Example 32, 6′-(2-Hydroxy-5-amino-pentyl)-1-(4-amino-2(S)-hydroxy-butyryl)-sisomicin] | 1 to 16 µg/mL (≈ 1.54 to 24.6 µM) | < 1 µg/mL | –
10 | CN[C@@H]1[C@@H](O)[C@@H](O[C@@H]2[C@@H](O)[C@H](O[C@H]3OC(CNC[C@H]4C[C@H](N)C4)=CC[C@H]3N)[C@@H](N)C[C@H]2NC(=O)[C@@H](O)CCN)OC[C@]1(C)O [Example 33, 6′-(Methyl-trans-3-amino-cyclobutyl)-1-(4-amino-2(S)-hydroxy-butyryl)-sisomicin] | 1 to 16 µg/mL (≈ 1.58 to 25.3 µM) | < 1 µg/mL | –
11 | CN[C@@H]1[C@@H](O)[C@@H](O[C@@H]2[C@@H](O)[C@H](O[C@H]3OC(CNCC(O)CCN)=CC[C@H]3N)[C@@H](N)C[C@H]2NC(=O)C2(O)CCNC2)OC[C@]1(C)O (stereo partly drawn) [Example 35] | 1 to 16 µg/mL (≈ 1.54 to 24.7 µM) | < 1 µg/mL | –
12 | CN[C@@H]1[C@@H](O)[C@@H](O[C@@H]2[C@@H](O)[C@H](O[C@H]3OC(CNCCO)=CC[C@H]3N)[C@@H](N)C[C@H]2NC(=O)C2(O)CNC2)OC[C@]1(C)O [Example 37] | 1 to 16 µg/mL (≈ 1.69 to 27.1 µM) | < 1 µg/mL | –
13 | CN[C@@H]1[C@@H](O)[C@@H](O[C@@H]2[C@@H](O)[C@H](O[C@H]3OC(CNCCN)=CC[C@H]3N)[C@@H](N)C[C@H]2NC(=O)[C@@H](O)CCN)OC[C@]1(C)O [Example 38, 6′-(2-Amino-ethyl)-1-(4-amino-2(S)-hydroxy-butyryl)-sisomicin] | 1 to 16 µg/mL (≈ 1.69 to 27 µM) | < 1 µg/mL | –
14 | CN[C@@H]1[C@@H](O)[C@@H](O[C@@H]2[C@@H](O)[C@H](O[C@H]3OC(CNCC4(O)CC(CN)C4)=CC[C@H]3N)[C@@H](N)C[C@H]2NC(=O)[C@@H](O)CCN)OC[C@]1(C)O (stereo partly drawn) [Example 39] | – | – | MIC (P. aeruginosa ATCC 27853; [1]): 1 to 16 µg/mL (≈ 1.51 to 24.2 µM); MIC (E. coli ATCC 25922; [2]): < 1 µg/mL
15 | CN[C@@H]1[C@@H](O)[C@@H](O[C@@H]2[C@@H](O)[C@H](O[C@H]3OC(CNCCCN)=CC[C@H]3N)[C@@H](N)C[C@H]2NC(=O)C2(O)CCNC2)OC[C@]1(C)O (stereo partly drawn) [Example 40] | 1 to 16 µg/mL (≈ 1.62 to 25.9 µM) | 1 to 16 µg/mL (≈ 1.62 to 25.9 µM) | –
16 | CN[C@@H]1[C@@H](O)[C@@H](O[C@@H]2[C@@H](O)[C@H](O[C@H]3OC(CNCC4CC4)=CC[C@H]3N)[C@@H](N)C[C@H]2NC(=O)C2(O)CCNC2)OC[C@]1(C)O (stereo partly drawn) [Example 41] | 1 to 16 µg/mL (≈ 1.63 to 26 µM) | < 1 µg/mL | –
17 | CN[C@@H]1[C@@H](O)[C@@H](O[C@@H]2[C@@H](O)[C@H](O[C@H]3OC(CNCC(O)CN)=CC[C@H]3N)[C@@H](N)C[C@H]2NC(=O)C2(O)CCNC2)OC[C@]1(C)O (stereo partly drawn) [Example 42, 6′-(2-Hydroxy-3-amino-propyl)-1-(3-hydroxy-pyrrolidin-3-yl-acetyl)-sisomicin] | 1 to 16 µg/mL (≈ 1.58 to 25.2 µM) | 1 to 16 µg/mL (≈ 1.58 to 25.2 µM) | –
18 | CN[C@@H]1[C@@H](O)[C@@H](O[C@@H]2[C@@H](O)[C@H](O[C@H]3OC(CNCCCCN)=CC[C@H]3N)[C@@H](N)C[C@H]2NC(=O)[C@@H](O)CCN)OC[C@]1(C)O [Example 43, 6′-(4-Amino-butyl)-1-(4-amino-2(S)-hydroxy-butyryl)-sisomicin] | < 1 µg/mL | < 1 µg/mL | –
19 | CN[C@@H]1[C@@H](O)[C@@H](O[C@@H]2[C@@H](O)[C@H](O[C@H]3OC(CNCCCCCN)=CC[C@H]3N)[C@@H](N)C[C@H]2NC(=O)[C@@H](O)CCN)OC[C@]1(C)O [Example 44, 6′-(5-Amino-pentyl)-1-(4-amino-2(S)-hydroxy-butyryl)-sisomicin] | 1 to 16 µg/mL (≈ 1.58 to 25.2 µM) | < 1 µg/mL | –
20 | CN[C@@H]1[C@@H](O)[C@@H](O[C@@H]2[C@@H](O)[C@H](O[C@H]3OC(CNCC4(O)CC(N)C4)=CC[C@H]3N)[C@@H](N)C[C@H]2NC(=O)[C@@H](O)CCN)OC[C@]1(C)O (stereo partly drawn) [Example 46] | 1 to 16 µg/mL (≈ 1.54 to 24.7 µM) | < 1 µg/mL | –
21 | CN[C@@H]1[C@@H](O)[C@@H](O[C@@H]2[C@@H](O)[C@H](O[C@H]3OC(CNCC4(O)CC(N)C4)=CC[C@H]3N)[C@@H](N)C[C@H]2NC(=O)C2(O)CNC2)OC[C@]1(C)O (stereo partly drawn) [Example 47] | 1 to 16 µg/mL (≈ 1.55 to 24.8 µM) | 1 to 16 µg/mL (≈ 1.55 to 24.8 µM) | –
22 | CN[C@@H]1[C@@H](O)[C@@H](O[C@@H]2[C@@H](O)[C@H](O[C@H]3OC(CNCCCN)=CC[C@H]3N)[C@@H](N)C[C@H]2NC(=O)[C@@H](O)CCN)OC[C@]1(C)O [Example 48, 6′-(3-Amino-propyl)-1-(4-amino-2(S)-hydroxy-butyryl)-sisomicin] | – | – | MIC (P. aeruginosa ATCC 27853; [1]): 1 to 16 µg/mL (≈ 1.65 to 26.4 µM); MIC (E. coli ATCC 25922; [2]): < 1 µg/mL; MIC AECO001 (E. coli ATCC 25922; Table 3, E. coli ATCC25922): 1 µg/mL (≈ 1.65 µM)
23 | CN[C@@H]1[C@@H](O)[C@@H](O[C@@H]2[C@@H](O)[C@H](O[C@H]3OC(CNCC4CCCN4)=CC[C@H]3N)[C@@H](N)C[C@H]2NC(=O)[C@@H](O)CCN)OC[C@]1(C)O (stereo partly drawn) [Example 49, 6′-(Methyl-pyrrolidin-2-yl)-1-(4-amino-2(S)-hydroxy-butyryl)-sisomicin] | 1 to 16 µg/mL (≈ 1.58 to 25.3 µM) | < 1 µg/mL | –
24 | CN[C@@H]1[C@@H](O)[C@@H](O[C@@H]2[C@@H](O)[C@H](O[C@H]3OC(CNC[C@H](O)C(=O)O)=CC[C@H]3N)[C@@H](N)C[C@H]2NC(=O)[C@@H](O)CCN)OC[C@]1(C)O [Example 50, 6′-(2(S)-Hydroxy-3-propanoic)-1-(4-amino-2(S)-hydroxy-butyryl)-sisomicin] | > 16 µg/mL | > 16 µg/mL | –
25 | CN[C@@H]1[C@@H](O)[C@@H](O[C@@H]2[C@@H](O)[C@H](O[C@H]3OC(CNCC(C)(C)CN)=CC[C@H]3N)[C@@H](N)C[C@H]2NC(=O)[C@@H](O)CN)OC[C@]1(C)O [Example 51, 6′-(2,2-Dimethyl-3-amino-propyl)-1-(3-amino-2(S)-hydroxy-propionyl)-sisomicin] | – | – | MIC APAE001 (P. aeruginosa ATCC 27853; [1]): C (MIC's of greater than 16.0 μg/mL = C); MIC AECO001 (E. coli ATCC 25922; [2]): A (MIC's of 1.0 μg/mL or less = A)
